Test results published in patent publication US9066947B2, “Indolyl-substituted pyrazino[1,2-b]isoquinolines for cancer treatment” (Everest Biosciences, Inc., priority 2009, dated 2015).

Legend:
PC-3 tumors = test: PC-3 prostate cancer xenograft mouse model of tumor growth and metastasis; assay type: in vivo, athymic NMRI nude mice; settings: tumors about 250 mm3, IV once every other day for 14 days; Etoposide 20 mg/kg, Substance X 40 mg/kg (FIG. 4)
Text: Athymic NMRI nude mice between 6-8 weeks old (Taconic; Bomholt, Denmark) were used. Prostate cancer xenograft mouse model was created by implanting hormone-independent PC3 tumor cells subcutaneously into athymic nude mice as previously described (Wegiel B, Bjartell A, Tuomela J, et al.: Multiple cellular mechanisms related to cyclin Al in prostate cancer invasion and metastasis. Journal of the National Cancer Institute 100: 10221036, 2008).
PC-3 cells were purchased from American Type Culture Collection (Manassas, V A) and cultured in RPMI-1640 supplemented with 10% Fetal Bovine Serum. PC-3 cells at 1×10^6/per mouse were used. The mice were divided into three groups (6 mice per group). The first group allowed tumors to grow between 170-400 mm^3 in size before starting the treatment. The second group allowed tumors to grow between 550-650 mm^3 in size before starting the treatment. The third group allowed tumors to grow between 700-800 mm^3 in size before starting the treatment. The tumor diameters were measured twice weekly using calipers. The tumor volumes were calculated using an equation of a*(b2/2) where a and b represent the length and width of the tumor, respectively.
The treatment of the compound of Example 1 (also referred to herein as “Substance X”) or PBS containing 5% DMSO (vehicle) as Control was started when tumors reached the desired size as described above. In the first experimental setting, Substance X was administered intravenously once every other day. In the second experimental setting, Substance X was administrated orally once every other day. Tumor growth was assessed periodically as described in Results. The mice were sacrificed after treatment by euthanization via isofluorene inhalation. Lymph node, liver, lung, spleen and femurs were removed from each mouse. Half of the tumor tissues were used for histology and immunohistochemical analysis. For histology analysis, tissues were fixed in 4% paraformaldehyde and embedded in paraffin. The sections were stained with hematoxylineosin (H&E) or imunohistochemical stained with antibodies and analyzed under an optical microscope. The other half of the tissues were used for protein analysis and thus were snapfrozen in liquid nitrogen. The body weights of the mice on the first and last day of the treatment were collected and compared. Tumor invasion and metastasis were examined in various tissues from the sacrificed mice.
For a comparison study, mice with tumors at 190-250 mm^3 in size were treated with the cytotoxic drug Etoposide (Sigma) at a dose of 20 mg/kg via IV injection once every other day. The tumor size was measured as described in the Results. Three mice were treated with Etoposide or the vehicle as Control. The mice were sacrificed and the tissues were collected as described above.

[1] = tested on: PC-3 prostate cancer cells; test: Annexin V-apoptosis assay; assay type: cell-based, human; settings: 48 hours
Procedure: (§1) Hormone-independent and metastatic PC-3 prostate cancer cells were purchased from the American Type Culture Collection (Manassas, Va., USA) and cultured in RPMI-1640 supplemented with 10% fetal bovine serum. Etoposide was purchased from Sigma, Avastin from Roche.
Cells were treated with 50 uM and 100 uM compounds and Etoposide for 48 hours, harvested, washed with PBS and resuspended in binding buffer (0.01 M HEPES pH 7.4, 0.14 M NaCl, […] CaCl2) (BD Bioscience, san Jose, Calif., USA), stained with […] annexin V and 7-AAD (BD Bioscience). The cells were incubated for 15 min at room temperature in the dark, and the rate of apoptosis was measured by flow cytometry (Calibur, BD) and analyzed using FCS Express Professional software (De NoVo software, CA, USA).

[2] = tested on: PC-3 prostate cancer cells; test: Cell cycle analysis; assay type: cell-based, human
Procedure: as §1
Cells were harvested after the treatment, then fixed in ice-cold 70% EtOH. Cells then were washed with PBS and incubated in DNA staining buffer, containing 1 mg/ml sodium citrate (Sigma), 0.1 mg/ml propidium iodide (Sigma), 3 ul/ml TritonX-100, 0.02 mg/ml RNaseA (Sigma) for 30 min at 4° C. The cell cycle profiles were measured in a FACS Calibur cytofluorometer (BD) and analyzed using FCS Express Professional (De NoVo software, CA, USA) and Multicycle (Phoenix Flow Systems, Inc., CA, USA) softwares.

Compound: COc1cc([C@@H]2c3cc4c(cc3[C@@H](O[C@@H]3O[C@@H]5CO[C@@H](C)O[C@H]5[C@H](O)[C@H]3O)[C@H]3COC(=O)[C@H]23)OCO4)cc(OC)c1O [Etoposide, reference compound]
- tumor growth, comparison of Etoposide and Substance X (PC-3 tumors): grew slowly
- Early apoptosis, % ([1]; 50 uM): 9.22%
- Late apoptosis/necrosis, % ([1]; 50 uM): 6.73%
- Total, % (apoptosis) ([1]; 50 uM): 15.95%
- Early apoptosis, % ([1]; 100 uM): 9.35%
- Late apoptosis/necrosis, % ([1]; 100 uM): 4.98%
- Total, % (apoptosis) ([1]; 100 uM): 14.33%
- G0/G1, % ([2]; 50 uM): 15.91%
- S + G2 + M, % ([2]; 50 uM): 84.09%
- G2/M phase blockage ([2]; 50 uM and 100 uM, analogue 3 statement at 100 uM): G2/M phase blockage
- G0/G1, % ([2]; 100 uM): 21.39%
- S + G2 + M, % ([2]; 100 uM): 78.61%
